Columns and labels:
[1] = Methylphenidate antagonism (mice biting corrugated paper); format: in vivo; conditions: Mus musculus, ip
Experimental: Methylphenidate antagonism (ED50 mg/kg i.p.)
Perspex observation cages without bottom and lid, consisting of 5 sections each measuring 12×25×30 cm. White corrugated paper. Mice, male, 18-25 g.
The test substance is given i.p. in the doses 0, 1/8, 1/32 and 1/128 of the determined "i.p. LD50". 3×2 mice are used for each dose level. Two or 24 hours after injection of test substance, methylphenidate, 60 mg/kg, is injected s.c. After administration of methylphenidate the mice are placed in the observation cages, 2 in each cage, where they remain for exactly 1 hour. The cages are placed on corrugated paper, the corrugations facing upwards. It is examined whether the mice have been biting the corrugated paper or not. […] If one or more of the control pairs have not been biting, the test has to be repeated on a new set of mice.
The result is stated in fractions: 0/3, 1/3, 2/3 and 3/3 where 0, 1, 2 and 3 are the number of pairs which have not been biting on receipt of the dose in question.
The results are calculated as the dose (ED50), which causes antagonism in 50% of the test animals.

[2] = Amphetamine antagonism (stereotypy in rats); format: in vivo; conditions: Rattus norvegicus
[3] = Catalepsy wire mesh, rat, max.; format: in vivo, rats; conditions: for ED50: Rattus norvegicus, sc, rats, s.c., strongest effect within first 6 hours, read-out: Catalepsy wire mesh, rat, max. ED50
Experimental: Catalepsy wire mesh, rat, max. (ED50 mg/kg s.c.)
A vertical wire netting (50 cm×49 cm). The meshes (openings) of the netting are square (1 cm×1 cm). The wire diameter is 2 mm. Stop watch. Rats, male, 180-200 g.
The animals are labeled and used in groups of five. The test substance is injected subcutaneously (s.c.) (5 ml/kg) at 4 dose levels selected from the fixed dose scale.
The animals are placed in the middle of the vertical wire netting 60, 120, 180, 240, 300 and 360 minutes after injection of the test compound. The animals are considered cataleptic when they remain immobile during a period of 15 seconds. This cataleptic reaction is designated +. If the rats are "atonic" and passively slide down the wire mesh they are considered not cataleptic. If the animals climb up and down the wire mesh they are nor cataleptic. In both situations the designation - is used.

[4] = Neuroleptic effect: duration and strength (remarks of Table 2); format: in vivo; conditions: in words; for Duration (remarks, words): duration of neuroleptic effect; for Strength of effect (remarks, words): strength of neuroleptic effect
Excerpt: The pharmacological testing of the novel xanthones and thioxanthenes of Formula I consisted of standard and reliable tests. […]

[5] = mice, i.p., methylphenidate 60 mg/kg s.c. 2 h after test substance, read-out: Methylphenidate antagonism ED50, 2 h
[6] = mice, i.p., methylphenidate 60 mg/kg s.c. 24 h after test substance, read-out: Methylphenidate antagonism ED50, 24 h
[7] = ip, 24 h, read-out: Amphetamine antagonism ED50
[8] = po, read-out: Amphetamine antagonism ED50, p.o.
[9] = 2 h, read-out: Methylphenidate antagonism ED50, 2 h
[10] = 24 h, read-out: Methylphenidate antagonism ED50, 24 h

With O=C1OCCN1CCN1CCC(=C2c3ccccc3Sc3ccc(Cl)cc32)CC1 [Lu 14-106, 1-(2-(2-Oxazolidinone-3-yl)ethyl)-4-(2-chloro-9-thioxanthenylidene)piperidine] the ED50 [1, 5] was 0.51 mg/kg, the ED50 [1, 6] was greater than 40 mg/kg and the ED50 [2, 7] was 1 mg/kg. For the same molecule, the ED50 [3] was 6.6 mg/kg, the “Duration (remarks, words)” value [4] was “short acting” and the “Strength of effect (remarks, words)” value [4] was “strong”.

Work on CSc1ccc2c(c1)C(=C1CCN(C[C@H]3CC[C@H](O)CC3)CC1)c1ccc(F)cc1S2 [Lu 14-116, 1-(trans-4-hydroxycyclohexylmethyl)-4-(2-methylthio-6-fluoro-9-thioxanthenylidene)-piperidine] yielded an ED50 [1, 5] of 0.44 mg/kg, an ED50 [1, 6] of 0.38 mg/kg and an ED50 [2, 7] of 0.28 mg/kg. For the same molecule, the ED50 [3] was 0.58 mg/kg, the “Duration (remarks, words)” value [4] was “long acting” and the “Strength of effect (remarks, words)” value [4] was “strong”.

Work on O=C1OCCN1CCN1CCC(=C2c3ccc(F)cc3Sc3ccc(Cl)cc32)CC1 [Lu 14-117, 1-(2-(2-Oxazolidinon-3-yl)ethyl)-4-(2-chloro-6-fluoro-9-thioxanthenylidene)piperidine] yielded an ED50 [1, 5] of 0.21 mg/kg, an ED50 [1, 6] of 29 mg/kg and an ED50 [2, 7] of 0.34 mg/kg. The ED50 [3] was 1 mg/kg, the “Duration (remarks, words)” value [4] was “short acting” and the “Strength of effect (remarks, words)” value [4] was “strong”.

For Fc1ccc2c(c1)Sc1ccc(C(F)(F)F)cc1C2=C1CCN(CC2CCOCO2)CC1 (stereo not drawn) [Lu 14-130, 1-(1,3-Dioxan-4-ylmethyl)-4-(2-trifluoromethyl-6-fluoro-9-thioxanthenylidene)piperidine], the ED50 [1, 5] was 0.77 mg/kg, the ED50 [1, 6] was 0.7 mg/kg and the ED50 [2, 7] was 0.62 mg/kg. For the same molecule, the ED50 [3] was 2.8 mg/kg, the “Duration (remarks, words)” value [4] was “long acting” and the “Strength of effect (remarks, words)” value [4] was “moderately strong”.

Molecule O[C@H]1CC[C@@H](CN2CCC(=C3c4ccc(F)cc4Sc4ccc(C(F)(F)F)cc43)CC2)CC1 [Lu 15-013, 1-(cis-4-hydroxycyclohexylmethyl)-4-(2-trifluoromethyl-6-fluoro-9-thioxanthenylidene)piperidene] has an ED50 [1, 5] of 0.63 mg/kg, an ED50 [1, 6] of 0.1 mg/kg and an ED50 [2, 7] of 0.76 mg/kg. For the same molecule, the ED50 [3] was 1.2 mg/kg, the “Duration (remarks, words)” value [4] was “long acting” and the “Strength of effect (remarks, words)” value [4] was “strong”.

In the case of CSc1ccc2c(c1)C(=C1CCN(C[C@H]3CC[C@H](O)CC3)CC1)c1ccccc1S2 [Lu 15-019, 1-(trans-4-hydroxycyclohexylmethyl)-4-(2-methylthio-9-thioxanthenylidene)-piperidine], the ED50 [1, 5] was 0.77 mg/kg, the ED50 [1, 6] was greater than 40 mg/kg and the ED50 [2, 7] was 0.59 mg/kg. For the same molecule, the ED50 [3] was 0.6 mg/kg, the “Duration (remarks, words)” value [4] was “short acting” and the “Strength of effect (remarks, words)” value [4] was “moderately strong”.

In the case of OC1CC(O)(CN2CCC(=C3c4ccc(F)cc4Sc4ccc(C(F)(F)F)cc43)CC2)CC(O)C1O (stereo not drawn) [Lu 15-089], the ED50 [1, 5] was 0.32 mg/kg, the ED50 [1, 6] was 0.32 mg/kg and the ED50 [2, 7] was 1.8 mg/kg. For the same molecule, the ED50 [3] was 2.7 mg/kg and the “Duration (remarks, words)” value [4] was “relatively short acting”.

CSc1ccc2c(c1)C(=C1CCN(C[C@H]3CC[C@H](O)CC3)CC1)c1ccc(F)cc1O2 [Lu 15-119, 1-(Trans-4-hydroxycyclohexylmethyl)-4-(2-methylthio-6-fluoro-9-xanthenylidene)piperidine] showed an ED50 [1, 5] of 0.09 mg/kg, an ED50 [1, 6] of 0.11 mg/kg and an ED50 [2, 7] of 0.56 mg/kg. For the same molecule, the ED50 [3] was 0.08 mg/kg, the “Cataleptic activity” value ([3]; in words) was “have a cataleptic activity” and the “Duration (remarks, words)” value [4] was “long acting”. The “Strength of effect (remarks, words)” value [4] was “very strong”.

With Cc1ccc2c(c1)Sc1ccc(C(F)(F)F)cc1C2=C1CCN(C[C@H]2CC[C@H](O)CC2)CC1 [Lu 16-014, 1-(trans-4-hydroxycyclohexylmethyl)-4-(2-trifluoromethyl-6-methyl-9-thioxanthenylidene)-piperidine] the ED50 [1, 5] was 0.31 mg/kg, the ED50 [1, 6] was 1.9 mg/kg and the ED50 [2, 7] was 1 mg/kg. For the same molecule, the ED50 [3] was 0.97 mg/kg, the “Duration (remarks, words)” value [4] was “long acting” and the “Strength of effect (remarks, words)” value [4] was “moderately strong”.

In the case of N[C@H]1CC[C@H](CN2CCC(=C3c4ccc(F)cc4Sc4ccc(C(F)(F)F)cc43)CC2)CC1 [Lu 16-042], the ED50 [1, 5] was 1.2 mg/kg, the ED50 [1, 6] was 0.17 mg/kg and the ED50 [2, 8] was 2.5 mg/kg. The ED50 [3] was 3.3 mg/kg, the “Duration (remarks, words)” value [4] was “long acting” and the “Strength of effect (remarks, words)” value [4] was “strong”.

COc1ccc2c(c1)C(=C1CCN(C[C@H]3CC[C@H](O)CC3)CC1)c1ccc(F)cc1S2 [Lu 16-052, 1-(trans-4-hydroxycyclohexylmethyl)-4-(2-methoxy-6-fluoro-9-thioxanthenylidene)-piperidine] showed an ED50 [1, 5] of 0.31 mg/kg, an ED50 [1, 6] of 29 mg/kg and an ED50 [2, 7] of 0.56 mg/kg. The ED50 [3] was 0.23 mg/kg, the “Duration (remarks, words)” value [4] was “short acting” and the “Strength of effect (remarks, words)” value [4] was “moderately strong”.

In the case of O=C1CCC(CN2CCC(=C3c4ccc(F)cc4Sc4ccc(C(F)(F)F)cc43)CC2)CC1 [Lu 16-088], the ED50 [1, 5] was 0.77 mg/kg, the ED50 [1, 6] was 0.06 mg/kg and the ED50 [2, 8] was 0.3 mg/kg. The ED50 [3] was 0.81 mg/kg, the “Duration (remarks, words)” value [4] was “long acting” and the “Strength of effect (remarks, words)” value [4] was “strong”.

Molecule O=C1NCCN1CCN1CCC(=C2c3ccc(F)cc3Sc3ccc(C(F)(F)F)cc32)CC1 [Lu 16-104] has an ED50 [1, 5] of 0.06 mg/kg, an ED50 [1, 6] of 1.5 mg/kg and an ED50 [2, 7] of 0.15 mg/kg. The ED50 [3] was 0.11 mg/kg, the “Duration (remarks, words)” value [4] was “relatively short acting” and the “Strength of effect (remarks, words)” value [4] was “strong”.

Molecule O=C1NCCN1CCN1CCC(=C2c3ccccc3Sc3ccc(Cl)cc32)CC1 [Lu 16-105] has an ED50 [1, 5] of 0.16 mg/kg, an ED50 [1, 6] of 28 mg/kg and an ED50 [2, 7] of 1.2 mg/kg. For the same molecule, the ED50 [3] was 0.38 mg/kg, the “Duration (remarks, words)” value [4] was “short acting” and the “Strength of effect (remarks, words)” value [4] was “strong”.

With CN(C)CCCN1c2ccccc2Sc2ccc(Cl)cc21 [chlorpromazine, reference compound] the ED50 [1, 9] was 4 mg/kg, the ED50 [1, 10] was 20 mg/kg and the ED50 [2, 7] was 7.1 mg/kg. The ED50 [3] was 5.6 mg/kg, the “Duration (remarks, words)” value [4] was “short acting” and the “Strength of effect (remarks, words)” value [4] was “moderatley strong”.

CN(C)CC/C=C1/c2ccccc2Sc2ccc(Cl)cc21 [chlorprothixene, reference compound] showed an ED50 [1, 9] of 0.71 mg/kg, an ED50 [1, 10] greater than 20 mg/kg and an ED50 [2, 7] of 6.1 mg/kg. For the same molecule, the ED50 [3] was 4 mg/kg, the “Duration (remarks, words)” value [4] was “short acting” and the “Strength of effect (remarks, words)” value [4] was “moderately strong”.

For OCCN1CCN(CCC=C2c3ccccc3Sc3ccc(Cl)cc32)CC1 [clopenthixol, reference compound], the ED50 [1, 5] was 1.2 mg/kg, the ED50 [2, 7] was 0.77 mg/kg and the ED50 [3] was 0.95 mg/kg. The “Duration (remarks, words)” value [4] was “short acting” and the “Strength of effect (remarks, words)” value [4] was “moderately strong”.

Work on CN1CCN(C2=Nc3cc(Cl)ccc3Nc3ccccc32)CC1 [clozapine, reference compound] yielded an ED50 [1, 9] greater than 160 mg/kg, an ED50 [2, 7] greater than 40 mg/kg and an ED50 [3] of 85 mg/kg. For the same molecule, the “Duration (remarks, words)” value [4] was “short acting” and the “Strength of effect (remarks, words)” value [4] was “weak”.

In the case of OCCN1CCN(CCC=C2c3ccccc3Sc3ccc(C(F)(F)F)cc32)CC1 [flupentixol, reference compound], the ED50 [1, 9] was 0.2 mg/kg, the ED50 [1, 10] was greater than 20 mg/kg and the ED50 [2, 7] was 0.69 mg/kg. For the same molecule, the ED50 [3] was 0.25 mg/kg, the “Duration (remarks, words)” value [4] was “short acting” and the “Strength of effect (remarks, words)” value [4] was “strong”.

In the case of OCCN1CCN(CCCN2c3ccccc3Sc3ccc(C(F)(F)F)cc32)CC1 [fluphenazine, reference compound], the ED50 [1, 9] was 0.04 mg/kg, the ED50 [1, 10] was 3.6 mg/kg and the ED50 [2, 7] was 0.08 mg/kg. The ED50 [3] was 0.099 mg/kg, the “Duration (remarks, words)” value [4] was “short acting” and the “Strength of effect (remarks, words)” value [4] was “very strong”.

For O=C(CCCN1CCC(O)(c2ccc(Cl)cc2)CC1)c1ccc(F)cc1 [haloperidol, reference compound], the ED50 [1, 9] was 0.06 mg/kg, the ED50 [2, 7] was 0.14 mg/kg and the ED50 [3] was 0.21 mg/kg. The “Duration (remarks, words)” value [4] was “short acting” and the “Strength of effect (remarks, words)” value [4] was “very strong”.
